Assay results taken from patent US20080091026A1, “NOVEL CRYSTAL OF N-[[(5S)-3-[4-(2,6-DIHYDRO-2-METHYLPYRROLO[3,4-C]PYRAZOL-5(4H)-YL)-3-FLUOROPHENYL]-2-OXO-5-OXAZOLIDINYL]METHYL]ACETAMIDE” (TRANSFORM PHARMACEUTICALS, INC., priority 2006, published 2008).

Assays:
[1] = bioavailability of the crystal form; type: in vivo; settings: compared to prior known forms of the API
[2] = solubility of the crystal form; type: physicochemical; settings: compared to prior known forms of the API
[3] = background statement; cited from earlier work

Row | bioavailability [1] | solubility [2] | SMILES | bioavailability in humans [3]
1 | improved | improved | CC(=O)NC[C@H]1CN(c2ccc(N3Cc4cn(C)nc4C3)c(F)c2)C(=O)O1.O=C(O)CC(=O)O [Form α crystal] | –
2 | – | – | CC(=O)NC[C@H]1CN(c2ccc(N3Cc4cn(C)nc4C3)c(F)c2)C(=O)O1 [N-[[(5S)-3-[4-(2,6-dihydro-2-methylpyrrolo[3,4-c]pyrazol-5(4H)-yl)-3-fluorophenyl]-2-oxo-5-oxazolidinyl]methyl]acetamide] | poor
